Measured values as given in US5856506A, “Phosphatase inhibitors and methods of use thereof” (University of Pittsburgh, priority 1997, dated 1999).
Where two headings read alike, the source gives them in different places.

Assays:
Recombinant human CDC25B = assay: CDC25B phosphatase assay, GST fusion protein, fluorescein diphosphate; assay type: biochemical; conditions: none = 100; 1 hour preincubation; concentration not given (0.3-100 μM tested)
Method: The compounds of the present invention are also capable of inhibiting dual specificity phosphatases, for example CDC25A and CDC25B. Phosphatases CDC25A and CDC25B are disclosed in U.S. Pat. No. 5,441,880. Inhibition of dual specificity phosphatases is defined herein as inhibition of the activity of CDC25A and/or CDC25B at a concentration of 100 μM of the inhibitor compound. In a preferred embodiment, the activity of the phosphatase is inhibited by at least 10%. In more preferred embodiments, the activity of the phophatase is inhibited by at least 25%, or even more preferably, by at least 50%. The ability of the compounds of the present invention to inhibit the phosphatases can be determined by measuring the effect of the compounds on the ability of CDC25 or CDC25B to dephosphorylate a substrate. Appropriate methods are known to those of ordinary skill in the art, and include, for example, calorimetric assays. A suitable assay is described in U.S. Pat. No. 5,441,880, the disclosure of which is incorporated herein by reference. […] The assay may be performed as a rapid calorimetric microtitration plate assay.
Compounds 1a-1r were assessed for ability to inhibit CDC25A and CDC25B activity. Recombinant human CDC25A and CDC25B were obtained as a glutahione-S-transferase (GST) fusion protein using human cDNA and standard molecular biological methods. The cDNA constructs are in a plasmid that is expressed in E. coli under the control of isopropyl-beta-D-[…] (IPTG). The bacterial pellet was disrupted by sonication, and centrifuged at 10,000×g. Using glutathione-agarose beads, the fusion protein was purified from postmicrosomal supernant fraction as described by Baratte et al. (1992) Anticancer Res. 12: 873-880. Phosphatase activity was assayed with a spectrofluorimeter under the following conditions: 1 unit (1 U=amount of protein that induces 33 fluoresence units/minute of product) of fusion protein in a final incubation mixture (150 μL) comprised of 25 mM Tris (pH=8.0), 5 mM EDTA, 33 μg/ml BSA, and 20 μM fluorescein diphosphate in 96-well microtiter plates. Plates were preincubated for 1 hour with 0 (control), 0.3, 1, 3, 10, 30, 100 μM compounds at room temperature. After the 1 hour incubation at room temperature, fluorescence of the fluorescein product (Ex. 485 nm; Em. 530 nm) were measured with a Biosystems Cytofluor II (Framingham, Mass.).

[1] = test system: human MDA-MB-231 breast cancer cells; assay: Antiproliferative activity, tetrazolium reduction assay (Lazo method), 72 h; assay type: cell-based; conditions: for IC50: MDA-MB-231, 72 h continuous treatment, read-out: concentration causing 50% growth inhibition
Source text: The ability of the compounds of the present invention to inhibit proliferation can be assessed by methods known to those of ordinary skill in the art. For example, proliferating cells can be contacted with a compound of the invention, and cell numbers determined. A reduction in cell number in treated versus untreated cells provides a measure of the ability of the present compounds to inhibit proliferation. In a preferred embodiment the cells to be treated are cancer cells, for example breast cancer cells such as the CDC25B+ breast cancer cells MDA-MB-231, which are available from the American Type Culture Collection (Accession No. HTB-26). The antiproliferative activity of the present compounds can also be measured by the assay described by Lazo et al. (1995) J. Biol. Chem. 270: 5506, the disclosure of which is incorporated herein by reference. The microtiter-based calorimetric assay is based upon the reduction of 3-[4,5-dimethylthiazol-2-yl]-2,5-diphenyl tetrazolium bromide by living cells, and permits evaluation of the cytostatic or cytotoxic actions of large numbers of compounds quickly in mouse embryonic fibroblasts and human CDC25B+ breast cancer cells. Briefly, exponentially growing CDC25B+ MDA-MB-231 cells are treated continuously with from 0 to 100 μM of a compound of the invention, and cell proliferation is determined calorimetrically after 72 hours by assessing the ability of the cells to reduce 3-[4,5-dimethylthiazol-2-yl]-2,5-diphenyl tetrazolium bromide.
Human MDA-MB-231 breast carcinoma cells were obtained from the American Type Culture Collection at passage 28 and were maintained for no longer than 20 passages. The cells were grown in RPMI-1640 supplemented with 1% penicillin (100 μg/mL) and streptomycin (100 μg/mL), 1% L-glutamate,and 10% fetal bovine serum in a humidified incubator at 37° C. under 5% CO2 in air. Cells were routinely found free of mycoplasma. To remove cells from the monolayer for passage or flow cytometry, cells were washed two times with phosphate buffer and briefly (<3 min) treated with 0.05% trypsin/2 mM EDTA at room temperature. After the addition of at least two volumes of growth medium containing 10W fetal bovine serum, the cells were centrifuged at 1,000×g for 5 min. Compounds were made into stock solutions using DMSO, and stored at -20° C. All compounds and controls were added to obtain a final concentration of 0.1-0.2% (v/v) of the final solution for experiments.
The antiproliferative activity of the compounds was determined by the method of Lazo et al. (1995) J. Biol. Chem. 270:5506. Briefly, cells (6.5×10^3 cells/cm^2) were plated in 96 well flat bottom plates for the cytotoxicity studies and incubated at 37° C. for 48 h. The plating medium was aspirated off 96 well plates and 200 μL of growth medium containing the compound was added per well. Compounds were used at from O to the highest available concentration which ranged from 30 to 100 μM. Plates were incubated for 72 h, and then washed 4× with serum free medium. After washing, 50 μL of 3-[4,5-dimethylthiazol-2-yl]-2,5-diphenyl tetrazolium bromide solution (2 mg/mL) was added to each well, followed by 150 μL of complete growth medium. Plates were then incubated an additional 4 h at 37° C. The solution was aspirated off, 200 μL of DMSO added, and the plates were shaken for 30 min at room temperature. Absorbance at 540 nm was determined with a Titertek Multiskan Plus plate reader. Biologically active compounds were tested at least 3 independent times.

For `CCCCCCCCCC(=O)NC(CCC(=O)N(CCNC(=O)c1nc(-c2ccccc2)oc1-c1ccccc1)Cc1ccccc1)C(=O)O` (centres unmarked) [Compound 1f], the “CDC25B activity remaining, percent of control” value (Recombinant human CDC25B) was 15%, the IC50 ([1]; Homo sapiens, MDA-MB-231, 72 h) was 100 µM and the “concentration dependence of growth inhibition (in words)” value ([1]; MDA-MB-231, 72 h) was “concentration-dependent inhibition in proliferation”. For the same compound, the “concentration dependence of growth inhibition (in words)” value ([1]; MDA-MB-231, 72 h, listed as if) was “clear concentration-dependency” and the IC50 [1] was 88 to 100 µM.
